Where a name gives a salt, the structure may show the parent alone.
Key:
LAT1 = biological target: T1, LAT1 (Homo sapiens, UniProt Q01650); assay: LAT1 inhibiting activity: inhibition of 14C-L-leucine uptake in T24 cells; assay type: cell-based; conditions: 1 μM 14C-Leu, 1-minute uptake
T1 construct: Using human bladder cancer cell strain T24 cells, in which LAT1 only was strongly expressed; endogenous in cells; host or cells: T24 human bladder cancer cells
Procedure: 1) To each of the weighed test compounds, DMSO was added to prepare a 100 mM solution or suspension as a DMSO stock. In an assay, the stock was diluted 1,000 fold with a buffer described below. The final concentration of the test compound was 100 μM and the final concentration of DMSO was 0.1%.
2) The LAT1 inhibiting activity of the test compound was determined in the following manner. Using human bladder cancer cell strain T24 cells, in which LAT1 only was strongly expressed, inhibiting activity of each test compound against “^14C”-L-leucine uptake was determined as the LAT1 inhibiting activity.
T24 cells in a logarithmic growth-phase were transferred to a 24-well plate at 0.8×10^5 cell/well and cultured at 37° C. for 2 days. After the plate was incubated at 37° C. on a water bath for 5 minutes, the fixed cells were washed three times with a Hank's balanced salt solution (HBSS: 25 mM HEPES, 125 mM choline chloride, 5.6 mM glucose, 4.8 mM KCl, 1.2 mM MgSO4, 1.2 mM KH2PO4, 1.3 mM CaCl2, pH 7.4) warmed to 37° C., not containing Na^+, to which 500 μl of HBSS (37° C.) was added. Then, further incubation was carried out for 7 minutes.
After the incubation was finished, a supernatant was replaced with HBSS containing 1 μM ^14C-Leu and 100 μM test compound (37° C.), followed by 1-minute uptake. Then, the cells were washed three times with HBSS of 4° C. The washed cells were added with 500 μl of 0.1 N NaOH to dissolve the cells for 20 minutes. The cell solution was transferred to a vial, to which 3 ml of a scintillator was added to measure the radioactivity with a liquid scintillation counter.
Inhibition % was calculated by the following formula. Inhibition %=100−(radioactivity of the well added with the test compound)/(radioactivity of the well not added with the test compound)×100

T1 sequence (Q01650 whole entry): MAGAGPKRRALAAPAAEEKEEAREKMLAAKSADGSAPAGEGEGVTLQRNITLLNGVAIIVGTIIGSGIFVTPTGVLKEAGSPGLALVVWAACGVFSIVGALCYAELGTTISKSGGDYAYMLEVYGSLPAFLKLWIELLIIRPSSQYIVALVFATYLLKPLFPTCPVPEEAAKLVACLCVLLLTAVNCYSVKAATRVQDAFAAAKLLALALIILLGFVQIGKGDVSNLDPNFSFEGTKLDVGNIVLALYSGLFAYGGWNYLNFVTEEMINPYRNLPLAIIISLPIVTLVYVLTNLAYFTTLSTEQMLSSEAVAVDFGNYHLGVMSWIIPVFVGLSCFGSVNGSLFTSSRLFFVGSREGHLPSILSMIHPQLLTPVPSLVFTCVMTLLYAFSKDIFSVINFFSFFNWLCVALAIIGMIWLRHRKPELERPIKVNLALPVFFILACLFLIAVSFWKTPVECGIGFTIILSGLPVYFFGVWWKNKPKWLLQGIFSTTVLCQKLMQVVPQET
T1 sequence (P08195 102-630 partner): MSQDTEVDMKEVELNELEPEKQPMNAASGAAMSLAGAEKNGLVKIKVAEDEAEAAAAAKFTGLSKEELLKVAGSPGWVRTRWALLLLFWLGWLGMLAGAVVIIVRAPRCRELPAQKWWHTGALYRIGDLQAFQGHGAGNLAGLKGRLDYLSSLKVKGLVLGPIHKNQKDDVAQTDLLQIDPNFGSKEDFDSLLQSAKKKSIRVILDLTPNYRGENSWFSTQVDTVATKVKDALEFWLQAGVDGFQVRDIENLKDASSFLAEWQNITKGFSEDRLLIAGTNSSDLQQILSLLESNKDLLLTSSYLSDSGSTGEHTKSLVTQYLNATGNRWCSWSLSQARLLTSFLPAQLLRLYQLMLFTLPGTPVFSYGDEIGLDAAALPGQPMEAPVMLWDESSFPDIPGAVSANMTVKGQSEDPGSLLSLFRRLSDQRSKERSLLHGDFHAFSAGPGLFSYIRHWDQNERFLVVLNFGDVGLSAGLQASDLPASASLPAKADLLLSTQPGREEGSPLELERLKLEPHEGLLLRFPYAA

melting point | IC50 (LAT1) [nM] | Compound
223 to 228 °C (dec.) | – | CN(C)c1ccc(-c2cccc(Oc3cccc(C[C@H](N)C(=O)O)c3)c2)cn1 (as salt: hydrochloride) [Example 98]
201 to 204 °C (dec.) | 490 | N[C@@H](Cc1cccc(OCc2ccc3ccccc3c2)c1)C(=O)O [Example 58, 3-[(2-naphthyl)methoxy]-L-phenylalanine]
239 to 241 °C (dec.) | 200 | N[C@@H](Cc1cc(Cl)c(OCc2cccc3nc(-c4ccc(O)cc4)oc23)c(Cl)c1)C(=O)O [Example 22]
214 to 217 °C (dec.) | 170 | N[C@@H](Cc1cccc(Oc2ccc(-c3ccccc3)cc2)c1)C(=O)O [Example 93]
203 to 210 °C (dec.) | 110 | Cc1cc(C[C@H](N)C(=O)O)cc(C)c1OCc1cccc2nc(-c3ccccc3)oc12 [Example 90]
210 to 215 °C (dec.) | 950 | COc1ncc(-c2nc3cccc(COc4c(Cl)cc(C[C@H](N)C(=O)O)cc4Cl)c3s2)c(OC)n1 [Example 74]
200 to 204 °C (dec.) | 220 | N[C@@H](Cc1cccc(Oc2cccc(-c3cccnc3)c2)c1)C(=O)O [Example 100]
180 to 186 °C (dec.) | 710 | N[C@@H](Cc1cccc(Oc2cccc3ccccc23)c1)C(=O)O [Example 54]
199 to 201 °C (dec.) | 810 | N[C@@H](Cc1cccc(-c2cccc(-c3ccccc3)c2)c1)C(=O)O [Example 112]
218 to 221 °C (dec.) | 290 | CN(C)c1ncc(-c2nc3cccc(COc4c(Cl)cc(C[C@H](N)C(=O)O)cc4Cl)c3o2)cn1 [Example 70]
213 to 215 °C (dec.) | – | N[C@@H](Cc1cc(I)c(OCCCBr)c(I)c1)C(=O)O [Example 1, O-(3-bromopropyl)-3,5-diiodo-L-tyrosine]
210 to 213 °C (dec.) | 280 | COc1ccc(-c2nc3cc(C)cc(COc4c(Cl)cc(C[C@H](N)C(=O)O)cc4Cl)c3o2)cc1 [Example 35]
203 to 206 °C (dec.) | 120 | N[C@@H](Cc1cccc(Oc2cccc(-c3ccccc3)c2)c1)C(=O)O [Example 53]
218 to 221 °C (dec.) | 200 | N[C@@H](Cc1cc(Cl)c(OCc2cccc3c(=O)c(CO)c(-c4ccccc4)oc23)c(Cl)c1)C(=O)O [Example 81]
221 to 231 °C (dec.) | 200 | Cc1ccc(-c2nc3cccc(COc4c(Cl)cc(C[C@H](N)C(=O)O)cc4Cl)c3o2)cc1 [Example 36]
226 to 230 °C (dec.) | 550 | Nc1c(-c2ccccc2)oc2c(COc3c(Cl)cc(C[C@H](N)C(=O)O)cc3Cl)cccc2c1=O [Example 83]
209 to 211 °C | 300 | N[C@@H](Cc1cc(Cl)c(OCc2cccc3nc(-c4ccc(Cl)cc4)oc23)c(Cl)c1)C(=O)O [Example 30]
200 to 208 °C (dec.) | 110 | N[C@@H](Cc1cc(Cl)c(OCc2cccc3nc4n(c23)Cc2ccccc2-4)c(Cl)c1)C(=O)O [Example 73]
191 to 194 °C (dec.) | 670 | CN(C)c1ncc(-c2cccc(Oc3cccc(C[C@H](N)C(=O)O)c3)c2)cn1 [Example 108]
210 to 220 °C (dec.) | 260 | N[C@@H](Cc1cccc(Oc2ccc3cc(O)ccc3c2)c1)C(=O)O [Example 56, 3-[2-(6-hydroxy)naphthyloxy]-L-phenylalanine]
185 to 190 °C (dec.) | 830 | N[C@@H](Cc1cccc(Oc2cccc(-c3cnc4ccccc4c3)c2)c1)C(=O)O [Example 106]
214 to 218 °C (dec.) | 150 | N[C@@H](Cc1cc(Cl)c(OCc2cccc3nc(-c4ccncc4)oc23)c(Cl)c1)C(=O)O [Example 33]
202 to 204 °C (dec.) | 230 | Cc1c(-c2ccccc2)oc2c(COc3c(Cl)cc(C[C@H](N)C(=O)O)cc3Cl)cccc2c1=O [Example 39]

melting point | IC50 (LAT1) [nM] | Compound
198 to 200.5 °C (dec.) | 940 | N[C@@H](Cc1cc(Cl)c(OCc2cccc3nc(Cc4ccccc4)oc23)c(Cl)c1)C(=O)O [Example 63]
204 to 208 °C (dec.) | 60 | N[C@@H](Cc1cccc(Oc2cccc(-c3ccc(Cl)cc3)c2)c1)C(=O)O [Example 103]
187 to 192 °C (dec.) | 520 | N[C@@H](Cc1cccc(Oc2cccc(-c3ccccn3)c2)c1)C(=O)O [Example 99]
202 to 206 °C (dec.) | 290 | COc1ccc2cc(Oc3cccc(C[C@H](N)C(=O)O)c3)ccc2c1 [Example 55, 3-[2-(6-methoxy)naphthyloxy]-L-phenylalanine]
– | 230 | COC(=O)c1c(-c2ccccc2)oc2c(COc3c(Cl)cc(C[C@H](N)C(=O)O)cc3Cl)cccc2c1=O [Example 87]
183 to 187 °C (dec.) | 270 | N[C@@H](Cc1cc(Cl)c(OCc2cccc3nc(-c4ccccc4)[nH]c23)c(Cl)c1)C(=O)O [Example 85]
– | 300 | N[C@@H](Cc1cc(Cl)c(OCc2cccc3nc(-c4cccc(O)c4)oc23)c(Cl)c1)C(=O)O [Example 48]
212 to 215 °C (dec.) | 360 | CN(CCO)c1ncc(-c2nc3cccc(COc4c(Cl)cc(C[C@H](N)C(=O)O)cc4Cl)c3o2)cn1 [Example 72]
219 to 222 °C (dec.) | 130 | CN(C)c1ccc(-c2nc3cccc(COc4c(Cl)cc(C[C@H](N)C(=O)O)cc4Cl)c3o2)cc1 [Example 37]
– | 200 | CN(C)c1ccc(-c2cccc(Oc3cccc(C[C@H](N)C(=O)O)c3)c2)cn1 [Example 98]
193 to 198 °C (dec.) | 60 | N[C@@H](Cc1cccc(Oc2cccc(-c3cccc(Cl)c3)c2)c1)C(=O)O [Example 102]
222.5 to 224 °C (dec.) | – | COC(=O)c1c(-c2ccccc2)oc2c(COc3c(Cl)cc(C[C@H](N)C(=O)O)cc3Cl)cccc2c1=O (as salt: HCl) [Example 87]
233 to 236 °C (dec.) | 240 | N[C@@H](Cc1cc(Cl)c(OCc2cccc3nc(-c4ccc(F)cc4)oc23)c(Cl)c1)C(=O)O [Example 32]
205 to 210 °C (dec.) | 500 | N[C@@H](Cc1cccc(Oc2ccc3[nH]ccc3c2)c1)C(=O)O [Example 52]
199 to 204 °C (dec.) | 370 | NC(Cc1cc(Cl)c(OCc2cccc3c2OC(c2ccccc2)CN3)c(Cl)c1)C(=O)O (stereo not drawn) [Example 71]
210 to 214 °C (dec.) | 100 | N[C@@H](Cc1cccc(Oc2ccc3ccccc3c2)c1)C(=O)O [Example 49-2), 3-(2-naphthyloxy)-L-phenylalanine]
207 to 210 °C (dec.) | 100 | Cc1c(-c2ccccc2)oc2c(CNc3c(Cl)cc(C[C@H](N)C(=O)O)cc3Cl)cccc2c1=O [Example 91]
214 to 218 °C (dec.) | 10 | CN(C)c1ccc(-c2cccc(Oc3cccc(C[C@H](N)C(=O)O)c3)c2)cn1 [Example 97]
219 to 223 °C (dec.) | 330 | N[C@@H](Cc1cc(Cl)c(OCc2cccc3oc(-c4ccccc4)nc23)c(Cl)c1)C(=O)O [Example 38]
233 to 236 °C (dec.) | 330 | CN(C)c1ccc(-c2nc3cccc(COc4c(Cl)cc(C[C@H](N)C(=O)O)cc4Cl)c3o2)cn1 [Example 65]
227 to 230 °C (dec.) | 290 | N[C@@H](Cc1cc(Cl)c(OCc2cccc3nc(-c4ccco4)oc23)c(Cl)c1)C(=O)O [Example 34]
182 to 185 °C (dec.) | 840 | N[C@@H](Cc1cccc(Oc2cccc(-c3ccncc3)c2)c1)C(=O)O [Example 96]

— US7345068B2, “Aromatic amino acid derivatives and medicinal compositions” (priority 2002, dated 2008)
